Measured values from ChEMBL document CHEMBL1155494, “New stilbene dimers against amyloid fibril formation” (Bioorg Med Chem Lett, 2010).

Columns and labels:
[1] = Inhibition of amyloid beta 25-35 fibril formation at 10 uM by using UV-visible measurements and electron microscopy analysis
[2] = Inhibition of amyloid beta 25-35 fibril formation by using UV-visible measurements and electron microscopy analysis

Structure (SMILES)	inhibition [1] [%]	EC50 [2] [µM]
Oc1cc(O)cc(/C=C/c2ccc(O)c(O)c2)c1	25	–
Oc1cc(O)cc(/C=C/c2ccc(O)cc2O)c1	32	–
Oc1ccc([C@H]2Oc3cc(O)c([C@@H]4[C@@H](c5cc6c(cc5O)O[C@H](c5ccc(O)cc5)[C@H]6c5cc(O)cc(O)c5)[C@H](c5ccc(O)cc5)O[C@@H]4c4ccc(O)cc4)cc3[C@@H]2c2cc(O)cc(O)c2)cc1	17	–
OC[C@H]1O[C@@H](Oc2cc(/C=C/c3ccc(O)cc3)c3c(c2)O[C@H](c2ccc(O)cc2)[C@H]3c2cc(O)cc(O)c2)[C@H](O)[C@@H](O)[C@@H]1O	93	0.2
OC[C@H]1O[C@@H](Oc2ccc(/C=C/c3cc(O)cc(O)c3)cc2)[C@H](O)[C@@H](O)[C@@H]1O	11	–
Oc1ccc(C2Oc3ccc(/C=C/c4cc(O)cc5c4[C@H](c4cc(O)cc(O)c4)[C@@H](c4ccc(O)cc4)O5)cc3[C@@H]2c2cc(O)cc3c2[C@H](c2cc(O)cc(O)c2)C(c2ccc(O)cc2)O3)cc1 (some centres not stated)	32	–
Oc1ccc(/C=C/c2cc(O)cc3c2[C@H](c2cc(O)cc(O)c2)[C@@H](c2ccc(O)cc2)O3)cc1	27	–
Oc1ccc(/C=C/c2cc(O)cc3c2[C@H](c2cc(O)cc(O)c2)[C@@H](c2ccc(O)c(O)c2)O3)cc1 [SCIRPUSIN A]	80	0.7
Oc1ccc(/C=C/c2cc(O)cc(O)c2)cc1 [RESVERATROL]	63	6
COc1cc(/C=C/C(=O)CC(=O)/C=C/c2ccc(O)c(OC)c2)ccc1O [CURCUMIN]	45	10
COc1cc(/C=C/c2cc(O)c3c(c2)O[C@H](c2ccc(O)c(OC)c2)[C@H]3c2cc(O)cc(O)c2)ccc1O	40	–
OC[C@H]1O[C@@H](Oc2cc(O)cc(/C=C/c3ccc(O)cc3)c2)[C@H](O)[C@@H](O)[C@@H]1O [PICEID]	62	6
OC[C@@H]1O[C@H](Oc2ccc(/C=C/c3cc(O)c4c(c3)O[C@H](c3ccc(O[C@H]5O[C@@H](CO)[C@H](O)[C@@H](O)[C@@H]5O)cc3)[C@H]4c3cc(O)cc(O)c3)cc2)[C@@H](O)[C@H](O)[C@H]1O [12,GNEMENOSIDE A]	46	10
COc1cc(/C=C/c2cc(O)cc(O)c2)ccc1O[C@@H]1O[C@H](CO)[C@@H](O)[C@H](O)[C@H]1O	28	–
COc1cc(/C=C/c2ccc(O)cc2)cc(OC)c1	35	–
Oc1cc(O)cc(-c2cc3ccc(O)cc3o2)c1	9	–
